Data as given in patent US20240307497A1, “ADIPONECTIN ALONE OR IN COMBINATION WITH EXTRACORPOREAL PHOTOPHERESIS (ECP) FOR IMMUNE RELATED ADVERSE EVENTS OF IMMUNE CHECKPOINT INHIBITORS” (Mallinckrodt Pharmaceuticals Ireland Limited, priority 2022, published 2024).

Key:
[1] = tested on: B16.F10 melanoma; assay: B16.F10 intravenous/metastatic tumor model; format: in vivo, C57BL/6 mice; settings: added to anti-PD1, vs anti-PD1-therapy alone
Procedure: C57BL/6 mice were intravenously injected with 10 000 B16.F10luc/GFP melanoma cells in the tail vein and treated with 0.2 mg ICI or the respective isotype control on day 1, 4, 8, 16 and 22. ECP-treated splenocytes were transplanted (107; i.v.) on days 13, 18, and 22, and daily steroids were given (i.p.) from days 13-22. Survival of the mice was monitored until day 60.

[2] = tested on: BRAF^V600E-mutant 4434 melanoma; assay: 4434 intravenous tumor model; format: in vivo, C57BL/6 mice; settings: added to anti-PD1, second melanoma model
[3] = tested on: B16.F10 melanoma with DSS/anti-PD1-mediated colitis; assay: Combined colitis and B16.F10 tumor model; format: in vivo, C57BL/6 mice
Procedure: C57BL/6 mice were intravenously injected with 10 000 B16.F10luc/GFP melanoma cells in the tail vein and received 3% Dextran Sodium Sulfate (DSS colitis grade, 36-50 kDa; MP Biomedicals) in drinking water from day 9-12, followed by normal drinking water. Mice were treated with 0.2 mg ICI or the respective isotype control on days 1, 4, 8, 16 and 22. ECP-treated splenocytes were transplanted (107; i.v.) on days 13, 18 and 22, daily steroid was given (i.p.) from days 13-22. Mice were imaged with BLI on day 23, organs and serum were harvested on day 24.
Luciferin (D-luciferin, potassium salt (S)-4,5-Dihydro-2-(6-hydroxy-2-benzothiazolyl)-4-thiazolecarboxylic acid potassium salt; Biosynth) was dissolved in H2O and injected i.p. at a concentration of 150 μg/g body weight. After 10 minutes, the mice were imaged using an IVIS Lumina III in vivo imaging system (PerkinElmer) with an exposure time of 2 minutes. The luciferase signal was quantified in photons per second per mouse. Acquisition, analysis, and visualization of BLI were performed using Living Image Software (PerkinElmer).

[4] = tested on: s.c. B16.F10-OVA melanoma and MC38-OVA^dim colorectal tumors; assay: OVA-transgenic subcutaneous tumor models; format: in vivo, mice; settings: OT-I and CD8^+OVA-Dextramer^+ T-cells, d16
Procedure: C57BL/6 recipients were transplanted subcutaneously with 1×106 MC38-OVAdim or 0.5×10^6 MC38 cells into the shorn right flank. Recipients were treated i.p. with 0.2 mg ICI on days 1, 4, 8, 11, 15. ECP-treated splenocytes were transplanted (107; i.v.) on days 6, 11 and 15, daily steroids were given (i.p.) from days 6-15. On day 16, serum samples were harvested by retroorbital bleeding, the mice were euthanized and tumors were resected for further studies.
CD45.1 recipients were transplanted subcutaneously with 1×106 B16.F10-OVA cells into the shorn right flank and treated i.p. with 0.2 mg ICI on day 1, 4, 8, 11, 15. ECP-treated splenocytes were transplanted (107; i.v.) on days 6, 11 and 15, daily steroids were given (i.p.) from days 6-15. OT-I splenocytes (CD45.2) were activated on day 2 at a density of 2×10^6 cells/mL in the presence of 100 U/mL rmIL-2 (Peprotech) and 0.1 μg/mL OVA257-264 peptide (Sigma) in RPMI supplemented with 10% FCS, 1% P/S, 55 μM beta-Mercaptoethanol (Gibco) and 4 mM glutamine (Gibco). Splenocytes were washed on day 4 and replated with 100 U/mL rmIL-2 at 2×10^6 cells/mL. […]
For quantification of adiponectin concentrations in murine serum specimen, blood was harvested by retroorbital bleeding and serum was isolated by centrifugation. Adiponectin concentrations were measured using Adiponectin Mouse ELISA Kit (ThermoFisher) at 20,000-fold dilution.

[5] = tested on: B16.F10 melanoma; assay: Recall immunity experiment; format: in vivo, mice; settings: T-cells of treated donors into secondary B16.F10 recipients
Excerpt: For evaluation of recall immunity, T-cell donor mice were challenged with 104 B16.F10 melanoma cells (i.v.) and treated with anti-PD1 (days 1, 3, 6, 9, 12), ECP (days 3, 7, 12) or steroids (days 3-12). Secondary recipients were sub-lethally irradiated with 6 Gy TBI and injected i.v. with 104 B16.F10 or 2×10^6 4434 melanoma cells. Splenic T-cells were enriched from T-cell donors on day 13 using the Pan T-cell Isolation Kit II (mouse, Miltenyi) and 1×105 T-cells were transplanted i.v. into secondary recipients on day 3 following tumor injection. Untreated melanoma mice served as control.

C[C@]12C=CC(=O)C=C1CC[C@@H]1[C@@H]2[C@@H](O)C[C@@]2(C)[C@H]1CC[C@]2(O)C(=O)CO [Steroids, Prednisolone]
survival [1]: reduced survival | survival [2]: findings were reproduced | colitis in melanoma-bearing mice ([3]; d23): similarly reduced | tumor burden / control of tumor growth ([3]; luminescence imaging and melanoma transcripts in lungs): higher tumor burden | tumor-specific T-cells in the tumor microenvironment [4]: reduction of adoptively-transferred OT-I T-cells and endogenous CD8^+OVA-Dextramer^+ T-cells | recall-immunity of transferred T-cells [5]: this was not the case
